# Assay results as given in ChEMBL document CHEMBL3507680, “University of Dundee, Gates Library screen for HepG2 cell viability”.
# Assay: Human HepG2 cell viability assay in 384 well format
# Assay type: toxicity, cell-based
# Design: dose 125 nL, time 70.5 hour; cytotoxicity at 70.5 h: concentration not given beside the values
# Details: HepG2 cells, read-out: Inhibition
row,Compound,cytotoxicity at 70.5 h [%]
1,Cc1ccc(C(=O)N2CC[C@@]3(C[C@@H](NS(C)(=O)=O)CCO3)C2)s1,4.89
2,Cc1nc(C(=O)N2CC[C@@]3(C[C@H](NS(C)(=O)=O)CCO3)C2)cs1,-7.15
3,CC(C)CN1C(=O)CO[C@@H]2CN(C(=O)C3CCOC3)C[C@H]21 (stereo partly specified),39.9
4,COCCN1C(=O)[C@]2(CC[C@@H]3CN(S(=O)(=O)CC(C)C)C[C@@H]32)N=C1C,13.1
5,CCCNC(=O)c1ncn2c1CN(CC(C)C)S(=O)(=O)c1ccccc1-2,13.4
6,CS(=O)(=O)N[C@@H]1CCN(Cc2cccnc2)[C@H]1Cc1cccnc1,13.6
7,CC1=N[C@@]2(CC[C@@H]3CN(S(=O)(=O)CC(C)C)C[C@@H]32)C(=O)N1C,-10.5
8,CCN1Cc2c(C(=O)NC)ncn2-c2ccccc2S1(=O)=O,-6.74
9,Cc1nnc([C@@H]2CC[C@@H]3[C@@H](CCN3S(=O)(=O)C3CC3)O2)o1,-14
10,CC(C)CN1Cc2c(C(=O)NC3CC3)ncn2-c2ccccc2S1(=O)=O,-15.8
11,Cc1nc(COC[C@H]2CC[C@H]3[C@H](CCN3C(N)=O)O2)cs1,-1.77
12,CC(C)CN1C(=O)CO[C@@H]2CN(C(=O)C3CCOCC3)C[C@H]21,-4.41
13,COc1ccc(CN2Cc3cn(C)nc3C(COCC3CC3)C2)cc1 (stereo unspecified),-4.4
14,Cn1cc(CN2CCCC3(CCN(C(=O)c4ccoc4)C3)C2)cn1 (stereo unspecified),-11
15,Cc1cccc(C(=O)N2CCn3c(CN4CCN(C)CC4)cnc3C2)n1,-7.95
16,COCC(=O)N1CCC2(CCCN(Cc3cnn(C)c3)C2)C1 (stereo unspecified),-3.28
17,O=C(CC1CC1)N1Cc2nccn2CC(CN2CCCC2)C1 (stereo unspecified),16.9
18,COc1ccc(C2CC(=O)NCc3nc4ccccn4c32)cn1 (stereo unspecified),-1.02
19,COCCc1noc(CN2CCN(c3ccc(OC)cc3)C(=O)C2C)n1 (stereo unspecified),-15.8
20,O=C(c1ccc(CN2CCCCC2)cc1)N1Cc2cnn(CCO)c2C1,19.3
21,COC(=O)CNC(=O)c1ccc(OC2CCN(S(C)(=O)=O)CC2)c(Cl)c1,-4.88
22,COc1ccc2c(c1)OCC(C(=O)NCc1nc3c(s1)CCCC3)C2 (stereo unspecified),-8.87

row,Compound,cytotoxicity at 70.5 h [%]
1,CCn1cncc1Cn1cccc(C(F)(F)F)c1=O,2.51
2,Cc1[nH]nc(CCC(=O)NCC2COc3ccccc3C2)c1C (stereo unspecified),-6.82
3,CN(C)C(=O)COc1ccccc1CN1CCCC2(C1)CN(C)C(=O)O2 (stereo unspecified),-7.63
4,CSCCCNC(=O)C(c1cccc(F)c1)N(C)C (stereo unspecified),-4.98
5,Cc1cc(-c2nn(C)c(Cl)c2CN2CCN(C)C(C(=O)O)C2)no1 (stereo unspecified),-5.8
6,N[C@@H](C(=O)N1CCN(c2ccccc2Cl)C(=O)C1)c1ccccc1,-14.1
7,CCc1nc(CN(C)C(=O)C2CC(=O)N(c3cccc(O)c3)C2)no1 (stereo unspecified),3.57
8,Cc1noc(CN2CC=C(c3cnn(C4CCS(=O)(=O)C4)c3)CC2)n1 (stereo unspecified),27.9
9,COC(=O)N1CCCCC1C(=O)N(C)Cc1cc(-c2cccnc2)no1 (stereo unspecified),-8.4
10,CCc1nc(C)c(C(=O)N2CCNCC2C(=O)NCc2ccncc2)o1 (stereo unspecified),-5.31
11,CCn1nc(C)c(CCNC(=O)C2CCCN(C(C)=O)C2)c1C (stereo unspecified),-8.81
12,c1ccc(C2CN(c3ncnc4[nH]cnc34)CCO2)cc1 (stereo unspecified),-8.36
13,CCC[C@H]1CN(S(=O)(=O)c2cc(C)ccc2C)C[C@@H]1N,-0.438
14,O=C(c1ccc(-c2ccoc2)nc1)N1CCCN(C2CCCCC2)CC1,-12.9
15,O=C(NCc1cccnc1N1CCc2ccccc2C1)c1cc(=O)[nH][nH]1,-3.06
16,CS(=O)(=O)N1C[C@@H]2CC[C@H](C1)N(C(=O)Cn1nc3ccccc3n1)C2,20.9
17,CCCN(Cc1nc(-c2ccoc2)oc1C)CC1CCCO1 (stereo unspecified),-6
18,COc1cc(-c2cnnc(NCC3CC3)n2)cc(OC)c1OC,5.52
19,O=C1N(Cc2cccc(F)c2F)CCCC1(O)CNCc1ccccc1 (stereo unspecified),19.6
20,CCc1ncc2c(n1)CN(C(=O)CNC(=O)C(C)C)C2,22.7
21,CN1C(=O)CC(C(=O)O)C12CCN(Cc1cc(Cl)ccc1F)CC2 (stereo unspecified),8.5
22,Fc1ccc(N2CCCN(Cc3ccc(-c4cc[nH]n4)o3)CC2)cc1,-0.367

row,Compound,cytotoxicity at 70.5 h [%]
1,COc1cccc2ccc(CN3CCN(c4ncccc4C)CC3)nc12,-7.71
2,Cc1c[nH]c(C(=O)N2C[C@H]3CC[C@@H]2CN(Cc2cscn2)C3)n1,-15.6
3,COCC(Nc1ncnc2sc(C(=O)O)c(C)c12)c1ccnn1C (stereo unspecified),0.588
4,OC(c1cccs1)C1CCN(c2ncccn2)CC1 (stereo unspecified),-8.6
5,CN(Cc1nc(C2CC2)no1)C(=O)C1COc2ccccc2C1 (stereo unspecified),-0.624
6,CN(C)C(=O)N1C[C@@H]2CC[C@H](C1)N(Cc1nnc(C3CC3)o1)C2,-16.8
7,CSCCCNC(=O)C(c1ccccc1C)N(C)C (stereo unspecified),-6.07
8,NC(=O)c1cccc(CC2CCN(C(=O)CCc3cccc(F)c3)C2)c1 (stereo unspecified),-8.51
9,CCc1cccc(NC(=O)CCN2CC=C(c3cnn(C)c3)CC2)c1,-5.53
10,CN(Cc1cccnc1)CC1CC12CCCC2 (stereo unspecified),-5.63
11,Cc1nn(CCC(=O)N2CCCC(OCc3cccnc3)C2)c(C)c1C (stereo unspecified),-6.47
12,Cn1nnnc1SCCNC(=O)CC1CCc2ccccc21 (stereo unspecified),-1.31
13,COc1cccc(CC(C)NCC(=O)Nc2ccccc2C)c1 (stereo unspecified),-0.681
14,O=C(NCC1CCCO1)c1cc(COc2ccccc2F)[nH]n1 (stereo unspecified),-3.44
15,CNc1nc(C(=O)N2CCCCC2c2ccc(CN(C)C)cc2)cs1 (stereo unspecified),1.16
16,O=C(NCc1n[nH]c2c1CCCCC2)c1cnn2c1CCCC2,-12.2
17,Cc1ccc(C)c(N2CCN(CC3(O)CCNC3)CC2)c1 (stereo unspecified),-0.198
18,Cc1nc(CCCNC(=O)C2CC(=O)N(C3CCCC3)C2)sc1C (stereo unspecified),-9.24
19,COc1cc2c(cc1CN1C[C@@H](CN3CCOCC3)[C@@H](CO)C1)CCC2,-2.99
20,CC(C)c1nccc(CN2CCCC(O)(CN3CCCC3)C2)n1 (stereo unspecified),-0.735
21,O=C(c1ccc(S(=O)(=O)NCCc2ccccn2)cc1)N1CCCC1,-14.8
22,CSCc1noc(CN2CCC3(CC2)CC(=O)N(CC(C)C)C3)n1,-2.72

row,Compound,cytotoxicity at 70.5 h [%]
1,CC[C@H](N)C(=O)Nc1nn(CC(F)(F)F)c2cc(OC(C)C)ccc12,-14.2
2,O=C1CSc2ccccc2N1Cc1noc(C2CCCO2)n1 (stereo unspecified),-5.67
3,CCc1cc(CN(C)C(=O)CN2CC(Cc3ccccc3)CC2=O)on1 (stereo unspecified),2.31
4,CN(C(=O)c1cnc(N2CCOCC2)nc1)C1Cc2ccccc2C1,-12.4
5,COc1cc(CN2CCCC2)ccc1OC12CCCN(CC1)C2 (stereo unspecified),-18.9
6,Cc1nc(CN2CCCC(CCc3ccccc3C(F)(F)F)C2)co1 (stereo unspecified),22.6
7,Cc1nc(CCNC(=O)c2cc(C(C)C)nn2C)sc1C,-10.1
8,CCN(CCn1cccn1)C(=O)CN1C(=O)OC[C@@H]1C(C)C,-3.13
9,Cc1nc(CC2CCN(C(=O)C(c3ccccc3C)N(C)C)CC2)no1 (stereo unspecified),-13.1
10,CN(Cc1ccc(C(=O)NCC2COCCO2)c(=O)[nH]1)CC(C)(C)C (stereo unspecified),6.27
11,CC1=C(C(=O)N(C)Cc2n[nH]c3c2CCCCC3)C(C)NC(=O)N1 (stereo unspecified),31
12,Cc1ccc(N2CCC(c3nccn3Cc3cscn3)CC2)nn1,0.241
13,CCNC(=O)[C@@H]1C[C@@H](NC(=O)c2cnc[nH]c2=O)CN1Cc1ccsc1,-2.36
14,CC(=O)N1CCN(C(=O)Nc2ccccc2Cl)[C@H]2CS(=O)(=O)C[C@H]21,-16
15,CCc1nccn1CCC(=O)N1CC(=O)N(c2ccccc2C)CC1C (stereo unspecified),-7.9
16,O=C(NCc1nc(NC2CCCC2)c2cc(Cl)ccc2n1)c1ccoc1,5.65
17,COc1ccc(-c2nccn2C[C@@H]2CCCN3CCCC[C@H]23)cc1,1.3
18,CC(C)c1cc(C(=O)N2CCCC2c2nc(-c3ccccc3)no2)[nH]n1 (stereo unspecified),-0.676
19,Cc1nc[nH]c1-c1nccn1CCN1CCCOC1=O,-5.03
20,COc1cc(OC)nc(N2CCCC(c3nccn3CCN(C)C)C2)n1 (stereo unspecified),30.4
21,CCCN1CCN(Cc2cccc(OC(C)C)c2)[C@H]2CS(=O)(=O)C[C@H]21,12.5
22,CNc1ncccc1C(=O)N1CCN(Cc2ccc(C)cc2)C(=O)C1C (stereo unspecified),-13.8

row,Compound,cytotoxicity at 70.5 h [%]
1,Cc1nc2c(c(=O)n1C)CCN(C(=O)Cn1cccc1)CC2,-4.24
2,CCCc1nnc(N2CCC(N3CCN(CCO)CC3)CC2)o1,-5.69
3,CN(Cc1cnn(C)c1)Cc1nc(CCc2ccccc2)no1,-4.56
4,CS(=O)(=O)N[C@H]1CCO[C@]2(CCN(C(=O)c3ccccn3)C2)C1,-3.91
5,Cc1ccc(C(=O)N2C[C@@H]3OCCN(C)[C@@H]3C2)cn1,-2.77
6,CNC(=O)[C@H]1C[C@@H]2CCN(Cc3nccs3)C[C@H]2O1,-6.34
7,Fc1cccc(CNCC2OCCc3cn(CC4CCOCC4)nc32)c1 (stereo unspecified),-5.44
8,O=C1CO[C@@H]2CN(CC3CC3)C[C@H]2N1Cc1cccc(F)c1,14.4
9,COc1ccc(CN2CCCn3cnc(COC(C)C)c3C2)cc1,23.2
10,CN1CC(=O)N(c2ccccc2)CC12CCN(S(C)(=O)=O)C2 (stereo unspecified),20.4
11,Cc1nc(CN2C[C@@H]3CN(C(=O)c4ccco4)C[C@@H]3C2=O)cs1,-3.99
12,O=C([C@H]1C[C@H]2OCC[C@H]2N(Cc2ccccc2F)C1)N1CCCCO1,-7.79
13,O=S(=O)(c1ccccc1)N1CCC2(CCCN2Cc2cccnc2)C1 (stereo unspecified),10.9
14,Cc1noc(C)c1CN1Cc2cn(C)nc2C(COCC2CC2)C1 (stereo unspecified),14.4
15,CS(=O)(=O)N[C@@H]1CCN(Cc2cccnc2)[C@H]1Cc1ccccc1,-11.7
16,O=C(Nc1cccnc1)[C@H]1C[C@@H]2CCN(Cc3nccs3)C[C@@H]2O1,-15.1
17,Cc1ncccc1NC(=O)[C@@H]1C[C@@H]2CCN(Cc3cccs3)C[C@H]2O1,-12.3
18,Cn1cc(CN2CCCC3(CCN(C(=O)c4ccccn4)C3)C2)cn1 (stereo unspecified),-12
